Source: patent US20230095836A1, “SUBSTITUTED 5,6-DIPHENYL-3(2H)-PYRIDAZINONES FOR USE AS FUNGICIDES” (FMC Corporation, priority 2020, published 2023)

Assays:
[1] = tested on: Phakopsora pachyrhizi; experiment: Test D: test solution sprayed on soybean seedlings, inoculated next day with Phakopsora pachyrhizi (Asian soybean rust); visual disease rating (100 = 100% disease control, 0 = no control; dash = not tested); assay type: in vivo
In short: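 Preventive spray test: soybean seedlings treated to run-off with ppm-level suspensions (acetone/water 50/50, 250 ppm PEG400), spore-inoculated one day later. Held 24 h at 22 °C in saturated air, then 8 days at 22 °C; disease control scored visually versus untreated plants, 0 = none, 100 = complete.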

[2] = tested on: Alternaria solani; experiment: Test F: test suspension sprayed on tomato seedlings, inoculated next day with Alternaria solani (tomato early blight); visual disease rating (100 = 100% disease control, 0 = no control; dash = not tested); assay type: in vivo
In short: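 Visual ratings of % disease control versus controls were made after inoculated plants spent 48 h at 27° C. in saturated air plus 3 days at 20° C. The compound suspension had been sprayed to run-off one day before spore inoculation.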

[3] = tested on: Zymoseptoria tritici; experiment: Test A: test solution sprayed on wheat seedlings, inoculated next day with Zymoseptoria tritici (wheat leaf blotch); disease rating (100 = 100% disease control, 0 = no control; dash = not tested); assay type: in vivo
In short: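 Preventive spray test: compound applied to run-off one day before spore inoculation of wheat seedlings. Incubation was 48 h saturated humidity at 24° C followed by 17 days at 20° C. Disease then scored 0–100 as % control versus untreated plants.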

[4] = tested on: Botrytis cinerea; experiment: Test E: test suspension sprayed on tomato seedlings, inoculated next day with Botrytis cinerea (tomato Botrytis); visual disease rating (100 = 100% disease control, 0 = no control; dash = not tested); assay type: in vivo
In short: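 Spores were applied one day after spraying the seedlings to run-off. Incubation was 48 h saturated at 20° C, then 3 days in a 24° C growth chamber. Visual ratings, relative to untreated controls, run from 0 (no control) to 100 (complete control).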

[5] = tested on: Blumeria graminis f. sp. tritici; experiment: Test C: test suspension sprayed on wheat seedlings, inoculated next day with Blumeria graminis f. sp. tritici (wheat powdery mildew); visual disease rating (100 = 100% disease control, 0 = no control; dash = not tested); assay type: in vivo
In short: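 Visual ratings of disease control (0–100, relative to controls) were made 8 days after inoculation with B. graminis f. sp. tritici spore dust. Plants were held at 20 °C. Compound was applied as a spray to run-off one day before inoculation.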

[6] = tested on: Puccinia recondita f. sp. tritici; experiment: Test B: test solution sprayed on wheat seedlings, inoculated next day with Puccinia recondita f. sp. tritici (wheat leaf rust); disease rating (100 = 100% disease control, 0 = no control; dash = not tested); assay type: in vivo
Description: The resulting test suspensions were then used in Tests A-F. The test solution was sprayed to the point of run-off on wheat seedlings. […] A rating of 100 indicates 100% disease control and a rating of 0 indicates no disease control (relative to the controls). A dash (—) indicates the compound was not tested.

| melting point [°C] | SMILES | pest or weed control at 250 ppm [1] [%] | pest or weed control at 250 ppm [2] [%] | pest or weed control at 250 ppm [3] [%] | pest or weed control at 250 ppm [4] [%] | pest or weed control at 250 ppm [5] [%] | pest or weed control at 250 ppm [6] [%] | pest or weed control at 50 ppm [1] [%] | pest or weed control at 50 ppm [2] [%] | pest or weed control at 50 ppm [3] [%] | pest or weed control at 50 ppm [4] [%] | pest or weed control at 50 ppm [5] [%] | pest or weed control at 50 ppm [6] [%] |
| --- | --- | --- | --- | --- | --- | --- | --- | --- | --- | --- | --- | --- | --- |
| 172 to 176 | COc1cc(OC)c(Cl)c(-c2nn(C)c(=O)cc2-c2c(F)cccc2F)c1 [Compound 12, 6-(2-chloro-3,5-dimethoxyphenyl)-5-(2,6-difluorophenyl)-2-methyl-3(2H)-pyridazinone] | 100 | 0 | 100 | 99 | 100 | 100 | – | – | – | – | – | – |
| 223 to 227 | COc1cc(OC)c([N+](=O)[O-])c(-c2nn(C)c(=O)c(Cl)c2-c2c(F)cccc2F)c1 [Compound 37, 4-chloro-5-(2,6-difluorophenyl)-6-(3,5-dimethoxy-2-nitrophenyl)-2-methyl-3(2H)-pyridazinone] | 100 | 99 | 99 | 99 | 98 | 100 | – | – | – | – | – | – |
| 126 to 129 | Cc1c(-c2ccc(F)cc2Cl)c(-c2ccc(F)cc2Cl)nn(C)c1=O [Compound 44, 5,6-bis(2-chloro-4-fluorophenyl)-2,4-dimethyl-3(2H)-pyridazinone] | – | – | – | – | – | – | 100 | 100 | 100 | 93 | 100 | 100 |
| 192 to 196 | COc1cc(OC)c(Cl)c(-c2nn(C)c(=O)c(Cl)c2-c2c(F)cccc2F)c1 [Compound 35, 4-chloro-6-(2-chloro-3,5-dimethoxyphenyl)-5-(2,6-difluorophenyl)-2-methyl-3(2H)-pyridazinone] | 100 | 99 | 100 | 99 | 100 | 100 | – | – | – | – | – | – |
| 137 to 140 | Cn1nc(-c2ccc(F)cc2Cl)c(-c2ccc(F)cc2Cl)c(C#N)c1=O [Compound 6, 5,6-bis(2-chloro-4-fluorophenyl)-2,3-dihydro-2-methyl-3-oxo-4-pyridazine-carbonitrile] | 0 | 99 | 100 | 99 | 92 | 100 | – | – | – | – | – | – |
| 165 to 168 | COc1ccc(Cl)c(-c2nn(C)c(=O)c(Cl)c2-c2ccc(F)cc2Cl)c1 [Compound 83, 4-chloro-5-(2-chloro-4-fluorophenyl)-6-(2-chloro-5-methoxyphenyl)-2-methyl-3(2H)-pyridazinone] | – | – | – | – | – | – | 100 | 100 | 100 | 92 | 99 | 100 |
| 119 to 122 | CCN1N=C(c2cc(OC)cc(OC)c2)C(c2c(F)cccc2F)CC1=O (stereo not drawn) [Compound 33, 5-(2,6-difluorophenyl)-6-(3,5-dimethoxyphenyl)-4,5-dihydro-2-ethyl-3(2H)-pyridazinone] | 0 | 0 | 0 | 0 | 0 | 55 | – | – | – | – | – | – |
| 153 to 157 | COc1cc(OC)cc(-c2nn(C)c(=O)c(Br)c2-c2c(F)cccc2F)c1 [Compound 34, 4-bromo-5-(2,6-difluorophenyl)-6-(3,5-dimethoxyphenyl)-2-methyl-3(2H)-pyridazinone] | 99 | 99 | 100 | 99 | 95 | 89 | – | – | – | – | – | – |
| 130 to 133 | COc1cc(OC)c(Cl)c(-c2nn(C)c(=O)c(OC)c2-c2ccc(F)cc2Cl)c1 [Compound 80, 6-(2-chloro-3,5-dimethoxyphenyl)-5-(2-chloro-4-fluorophenyl)-4-methoxy-2-methyl-3(2H)-pyridazinone] | – | – | – | – | – | – | 100 | 100 | 100 | 99 | 100 | 100 |
| 132 to 136 | COc1cc(OC)cc(-c2nn(C)c(=O)cc2-c2c(F)cccc2F)c1 [Compound 38, 5-(2,6-difluorophenyl)-6-(3,5-dimethoxyphenyl)-2-methyl-3(2H)-pyridazinone] | 0 | 0 | 98 | 98 | 81 | 99 | – | – | – | – | – | – |
| 85 to 90 | COc1cc(OC)c(Cl)c(-c2nn(C)c(=O)c(Cl)c2-c2ccc(F)cc2Cl)c1 [Compound 58, 4-chloro-6-(2-chloro-3,5-dimethoxyphenyl)-5-(2-chloro-4-fluorophenyl)-2-methyl-3(2H)-pyridazinone] | – | – | – | – | – | – | 100 | 100 | 100 | 99 | 100 | 100 |
| 150 to 154 | COc1cc(OC)cc(-c2nn(C)c(=O)c(Cl)c2-c2c(F)cccc2F)c1 [Compound 36, 4-chloro-5-(2,6-difluorophenyl)-6-(3,5-dimethoxyphenyl)-2-methyl-3(2H)-pyridazinone] | 93 | 99 | 100 | 100 | 99 | 100 | – | – | – | – | – | – |
| 221 to 225 | COc1cc(-c2nn(C)c(=O)cc2-c2c(F)cccc2F)cc(OC)c1Cl [Compound 14, 6-(4-chloro-3,5-dimethoxyphenyl)-5-(2,6-difluorophenyl)-2-methyl-3(2H)-pyridazinone] | 0 | 0 | 88 | 0 | 0 | 80 | – | – | – | – | – | – |
| 174 to 178 | COc1cc(OC)c([N+](=O)[O-])c(-c2nn(C)c(=O)cc2-c2c(F)cccc2F)c1 [Compound 13, 5-(2,6-difluorophenyl)-6-(3,5-dimethoxy-2-nitrophenyl)-2-methyl-3(2H)-pyridazinone] | 63 | 9 | 94 | 99 | 81 | 99 | – | – | – | – | – | – |
| 140 to 143 | COc1cc(OC)c(Cl)c(-c2nn(C)c(=O)c(C)c2-c2ccc(F)cc2Cl)c1 [Compound 66, 6-(2-chloro-3,5-dimethoxyphenyl)-5-(2-chloro-4-fluorophenyl)-2,4-dimethyl-3(2H)-pyridazinone] | – | – | – | – | – | – | 100 | 100 | 100 | 100 | 100 | 100 |
| 135 to 138 | COc1ccc(Cl)c(-c2nn(C)c(=O)c(C)c2-c2c(F)cccc2F)c1 [Compound 68, 6-(2-chloro-5-methoxyphenyl)-5-(2,6-difluorophenyl)-2,4-dimethyl-3(2H)-pyridazinone] | – | – | – | – | – | – | 100 | 100 | 100 | 99 | 100 | 100 |
| 149 to 150 | COc1ccc(Cl)c(-c2nn(C)c(=O)c(C)c2-c2ccc(F)cc2Cl)c1 [Compound 102, 5-(2-chloro-4-fluorophenyl)-6-(2-chloro-5-methoxyphenyl)-2,4-dimethyl-3(2H)-pyridazinone] | – | – | – | – | – | – | 100 | 100 | 100 | 98 | 100 | 100 |
| 139 to 142 | COc1cc(OC)cc(C2=NN(C)C(=O)CC2c2c(F)cccc2F)c1 (stereo not drawn) [Compound 39, 5-(2,6-difluorophenyl)-6-(3,5-dimethoxyphenyl)-4,5-dihydro-2-methyl-3(2H)-pyridazinone] | 0 | 0 | 98 | 99 | 69 | 86 | – | – | – | – | – | – |
